Test results published in PubChem BioAssay (NCI).
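Growth conditions: 96-well plates. Treatment: test compound, 48 hours, 5 concentrations. Analysis: linear interpolation between bracketing concentrations; unreached endpoints set to highest concentration. The concentration for 50% growth inhibition is given as GI50. TGI denotes the concentration required for complete inhibition of growth.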

Columns and labels:
Assay in all cases: inhibition of tumour cell growth, NCI panel, 48 h
MDA-MB-435 = system: MDA-MB-435
SK-OV-3 ovarian = system: SK-OV-3 ovarian
NCI-H226 lung = system: NCI-H226 lung
SNB-75 CNS = system: SNB-75 CNS
UACC-257 melanoma = system: UACC-257 melanoma
MALME-3M melanoma = system: MALME-3M melanoma
HCC-2998 colon = system: HCC-2998 colon
MCF7 breast = system: MCF7 breast
CCRF-CEM leukemia = system: CCRF-CEM leukemia
SF-539 CNS = system: SF-539 CNS

Row | SMILES | GI50 (MDA-MB-435) [nM] | TGI (MDA-MB-435) [µM] | GI50 (SK-OV-3 ovarian) [µM] | TGI (SK-OV-3 ovarian) [µM] | GI50 (NCI-H226 lung) [µM] | TGI (NCI-H226 lung) [µM] | GI50 (SNB-75 CNS) [nM] | TGI (SNB-75 CNS) [µM] | GI50 (UACC-257 melanoma) [nM] | TGI (UACC-257 melanoma) [µM] | GI50 (MALME-3M melanoma) [nM] | TGI (MALME-3M melanoma) [µM] | GI50 (HCC-2998 colon) [nM] | TGI (HCC-2998 colon) [µM] | GI50 (MCF7 breast) [nM] | TGI (MCF7 breast) [µM] | GI50 (CCRF-CEM leukemia) [nM] | TGI (CCRF-CEM leukemia) [µM] | GI50 (SF-539 CNS) [nM] | TGI (SF-539 CNS) [µM]
1 | Cn1cc(C2=C(c3cn(CCCN/C(N)=N\[N+](=O)[O-])c4ccccc34)C(=O)NC2=O)c2ccccc21 | 3010 | 7.73 | 3.43 | > 20 | 4.56 | > 19.1 | 161 | 7.92 | 7120 | 21.8 | 6380 | 15.9 | 6720 | 20.4 | 1150 | > 22.6 | 87.7 | 6.63 | 968 | 5.11
2 | O=c1c(Br)ccc(Br)cc1Br | 1850 | 4.38 | 15.7 | 29.2 | 2.94 | 9.7 | 1830 | 4.24 | 1910 | 3.49 | 1850 | 4.05 | 3070 | 8.6 | 3810 | 77.6 | 317 | 1.58 | 1920 | 4.52
3 | COc1cc(-c2nc3cc(Cl)c(Cl)cc3[nH]2)ccc1OCC(=O)N=Nc1c(O)[nH]c2ccccc12 | 389 | 1.42 | 1.91 | 4.39 | 1.04 | 2.67 | 1230 | 2.65 | 1320 | 3.67 | 226 | 0.683 | 419 | 1.43 | 201 | 0.479 | 322 | 17.5 | 1080 | 2.29
4 | COc1cc(Nc2nccc(-c3cnn4ncccc34)n2)cc(OC)c1 | 70 | 0.859 | 0.418 | 9.84 | 0.0577 | 0.324 | 75.4 | 0.308 | 84.4 | 0.48 | 132 | 1.26 | 104 | 1.71 | 52.1 | 0.2 | 66.8 | – | 63.7 | 0.257
5 | Cc1cnc2n(c1=O)Cc1ccccc1CO2 | 25900 | > 72.1 | 41 | > 100 | 20.4 | 52.5 | 25300 | > 64 | 23000 | 66 | 19800 | 44.9 | 16000 | 31.4 | 10600 | 28.1 | 2350 | 10.5 | 24000 | 60
6 | Nc1ncnc2c1c(-c1ccc(Oc3ccccc3)cc1)nn2C[C@H]1SSC[C@H]1O | 25.5 | 0.0736 | 0.222 | 1.31 | 1.43 | 3.42 | 2880 | > 24 | 208 | 1.36 | 81.5 | 0.332 | 388 | 2.03 | 46.5 | 1.2 | 54 | > 100 | 441 | 5.97
7 | Nc1c(S(=O)(=O)O)cc2c(c1Cl)C(=O)c1ccccc1C2=O | > 100000 | > 100 | > 100 | > 100 | > 100 | > 100 | > 100000 | > 100 | > 100000 | > 100 | > 100000 | > 100 | > 100000 | > 100 | > 100000 | > 100 | > 100000 | > 100 | > 100000 | > 100
8 | N=C(N)c1ccc(-c2ccc(-c3ccccc3)o2)o1 | 999 | 2.39 | 4.3 | 16 | 5.7 | 24.2 | 1600 | 4.12 | 2520 | 6.35 | 1750 | 3.53 | 1610 | 3.25 | 1680 | 5.61 | 3580 | 12.4 | 1950 | 4.43
9 | CC/C(=C(/c1ccc(Cl)cc1)c1ccc(OCCCN(C)C)cc1)c1ccc(OC)cc1 | 3280 | 9.69 | 10.2 | 17.5 | 7.7 | 18.3 | 6020 | 12.3 | 7930 | 15 | 1200 | 2.67 | 8740 | 17.4 | 1050 | 5.89 | 1790 | 7.19 | 4080 | 11.6
10 | COc1cccc(-c2nn(C)c3sc(C(=O)NCCN4CCN(c5ccccc5F)CC4)cc23)c1 | 10500 | > 100 | > 100 | > 100 | 31.3 | > 100 | 3590 | 95.3 | 28400 | > 100 | 9490 | 53.5 | 7060 | > 100 | 6540 | > 100 | 8540 | > 100 | 9450 | > 100
11 | Clc1ccc2c(NCCCNCc3ccc4c(c3)OCO4)ccnc2c1 | 1680 | 3.29 | 14.7 | 29.3 | 17.8 | 40.9 | 1520 | 3.37 | 1910 | 3.44 | 1860 | 3.48 | 2030 | 5.25 | 2890 | 13 | 4620 | 19.3 | 1850 | 3.41
12 | C=CCOc1ccc2c(c1)CC[C@@H]1[C@@H]2CC[C@]2(C)C(=O)/C(=N/O)C[C@@H]12 | 3270 | 17.2 | 6.97 | 20.3 | 5.06 | 21.7 | 335 | 8.39 | 11800 | 59 | 18000 | 44.4 | 1090 | 3.06 | 2720 | 13.2 | 2510 | 8.67 | 15800 | > 50.1
13 | NC1=C(O)/C(=N/NS(=O)(=O)c2ccccc2)C(c2cccc(Cl)c2)O1 (centres undefined) | – | > 100 | – | > 100 | – | > 90.9 | – | > 80.4 | – | > 100 | – | 54.8 | – | > 100 | – | 61.7 | – | 12 | – | > 81.8
